We go through one compound from patent US20250163026A1, “Deuterium-Enriched Nirmatrelvir as SARS-CoV-2 Mpro Inhibitor for the Treatment of COVID-19” (priority 2023, published 2025).

The test system of this assay is human coronavirus M^Pro. Description: Biochemical determination for human coronavirus M^pro assays. As to conditions: at 30 μM, control compound, 1% DMSO. Here is the method: The respective human coronavirus M^Pro in assay buffer (20 mM Tris-HCl, pH 7.3, 100 mM NaCl, 1 mM EDTA, 5 mM TCEP) and 0.1% BSA is added to assay-ready plates containing test compound (compound the present invention, Formula I). The enzymatic reaction is then immediately initiated with the addition of 5 μL substrate in assay buffer. Initial rates are measured by following the fluorescence of the cleaved substrate using a Spectramax (Molecular Devices) fluorescence plate reader in the kinetic format.
Test compounds (compounds of the present invention, compounds of Formula I) are tested at final concentrations up to […] in 1% DMSO and compared to the broad-spectrum antiviral compound GC376 [Y. Kim, S. Lovell, et al, Broad-spectrum antivirals against 3C or 3C-like proteases of picornaviruses, noroviruses, and coronaviruses. J. Virol. […] The reaction is allowed to progress for 60 minutes at 23° C. after which the plate is read on a Molecular Devices Spectramax M2e reader at an Ex/Em of 340 nm/490 nm.
Percent inhibition values are calculated based on control wells containing DMSO only (0% inhibition) and wells containing a control compound (100% inhibition). […] Percent activity values are calculated based on control wells containing no compound (100% activity) and wells containing the broad-spectrum antiviral compound GC376 (0% activity). […]

In the case of `CC(C)C[C@H](NC(=O)OCc1ccccc1)C(=O)N[C@@H](C[C@@H]1CCNC1=O)C(O)S(=O)(=O)[O-].[Na+]` (stereo partly shown) [GC376], the inhibition amounted to 100%.
